The text below walks through data of US8486434B2, “Medical implant containing an antioxidative substance” (Biotronik VI Patent AG, priority 2009, dated 2013).

This data set can be described thus: toxicity of isoprenoids (compatibility with the body). The following applies: in concentrations of 10 μmol/l. The text has this:
Thus, for example, lycopene and ubichinon are already toxic in concentrations of 10 μmol/l. Squalene, on the other hand, is not toxic, even in concentrations of 100 μmol/l.

For ubichinon, the toxicity entry is “toxic”.
